Results from patent publication US8163803B2 (Fundação Oswaldo Cruz—FIOCRUZ, priority 2004, dated 2012).

How the values were obtained:
patients = details: cited from earlier work
[1] = test system: cutaneous sites of the dorsal region of adult Wistar rats; experiment: Local anesthetic activity, intradermal injection in dorsal skin, response to mechanical stimulation; assay type: in vivo; details: for time of anesthesia compared with lidocaine: doses from 0.5 to 4 μMol/site
Description: Female and male Wistar rats, weighing between 200 and 250 g, they came from Oswaldo Cruz Foundation's Center of Laboratory Animal Raising were used. The procedures involving the animals were examined and approved by Oswaldo Cruz Foundation's Committee of Animal Ethics (CEUA-FIOCRUZ, License number 00085-02). After brief anesthesia by exposure to the atmosphere enriched with […] animals were trichotomized dorsal region, where the […] injections with substances for test were performed; doses varied from 0.5 to 4 μMol/site, and vehicule (NaCl 0.9%) (negative control), the final volume was 50 μl. Each animal took six injections and four animals were used for each tested substance. The application points were mechanically estimulated with a tweezer in order to evaluate the integrity of sensitiveness. The site was considered not to be anesthesized whenever after the mechanical stimulation it was observed a local retraction of the skin, according to what had been previously reported. The evaluations began 10 minutes after intradermal injections had been taken, which continued every five minutes until it was obtained the cutaneous retraction response. The values (average±standard error of the mean, SEM) were expressed in terms of “Time of Anesthesia” in minutes.

[2] = test system: Na^+ currents in GH3 cells; experiment: Tonic block of Na+ currents in GH3 cells, whole cell patch clamp; assay type: cell-based, Rat
Description: Ion channel currents were recorded by means of a patch clamp technique. The cells cultured on the cover glass were placed in a chamber fixed to a microscope stage and continuously perfused with extracellular Saline (A) solution (in mM); 150 NaCl, 5 KCl, 1 MgCl2, 0.01 CaCl2, 1 EGTA, 10 HEPES, 2 BaCl2, 0.1 CdCl2, pH 7.4 at room temperature (22-25° C.) adjusted with NaOH. The cells were observed using phase contrast mode under an inverted microscope (Axiovert 100, Carl Zeiss, Oberkochem, D Germany). Tight-seal (>10 GΩ) whole cell voltage-clamp recordings were performed with an Axopatch-1D amplifier (Axon Instruments, San Mateo, Calif.). […] Fifteen minutes after rupture of the patch membrane, we started to record ion channel currents. Pulse protocols and data acquisition were controlled by Digidata 1320 interface (Axon Instruments, Palo Alto, Calif.), and acquired on a personal computer using Clampex 9 software. The Na^+ current recordings were filtered at 1 kHz and sampled at 8 kHz. About 26% of series resistance was electronically compensated. Drugs were applied to the recording chamber by gravity. Perfusion rate was maintained at 0.8-1.1 ml/min and bath volume was of 50 μl. […] Voltage-gated Na^+ currents were recorded from these cells in the presence or absence of treatment.

[3] = test system: sensitized experimental animals; experiment: Pulmonary eosinophil infiltrate after ovoalbumin aerosol challenge, bronchoalveolar lavage count; assay type: in vivo; details: 5% aerosol, 30 min, with ovoalbumin 1% plus 3 aerosolizations every 3 h; lavage 24 h after challenge
Description: The animals were sensitized through a cutaneous injection of a mixture with 50 μg ovoalbumin and 5 mg Al(OH)3, and challenged with ovoalbumin (1%) aerosol for 30 min 14 days afterwards, according to what was previously described. In order to avoid death of animals by anaphylatic asphyxia, all of them were treated intraperitonially with the anti-histaminic difenidramine (30 mg/kg) 30 minutes before being challenged.
Bronchoalveolar Lavage and Eosinophils Counting
All the animals were anesthesized terminally through an intraperitonial injection of pentobarbital (200 mg/kg) 24 h after the antigenic challenge, to wash the bronchoalveolar space according to the techniques previously described. Total leukocyte count were done after dilution of bronchoalveolar lavage samples in Turk liquid and counting in the Neubauer chamber with the assistance of direct-light microscopy. The differential eosinophil count was done also under direct-light microscopy, after centrifugation of samples of the lavage as well as its exposure to specific dyestuff (May-Grunwald-Giemsa dye).
The averages± standard error of the mean of the groups investigated were analyzed based on statistics through the test of variance analysis (ANOVA), followed by the Newman-Keuls-Student test.
Values, expressed in terms of “number of eosinophils×10^6/lavage” are presented as average±SEM in at least 7 animals. In the negative control group, animals previously sensitized were artificially-challenged through exposure to sterile saline (NaCl, 0.9%) aerosol. […] “*” represents the difference statistically significant (P<0.05), when the group treated and the positive control group were compared.

[4] = test system: isolated ileum of an experimental animal; experiment: Contraction of isolated ileum induced by histamine; details: histamine (5 μM), average ±SEM, at least 3 animals; read-out: Stimulation with histamine IC50
Description: (§1) Female and male experimental animals were used, weighing between 300 and 400 g, they came from Oswaldo Cruz Foundation's Center of Laboratory Animal Raising. The procedures involving the animals were examined and approved by Oswaldo Cruz Foundation's Committee of Animal Ethics (CEUA-FIOCRUZ, Licenca no. 00085-02). The animals were sensitized through a subcutanous injection with a mixture of 50 μg ovoalbumin and 5 mg Al(OH)3. From fourteen to thirty days after the sensitization, the experimental, animal was sacrificed in a chamber of carbonic gas to have its abdomen open and the location of the ileocecal valve. At this point, the intestine was sectioned and a segment of the small intestine, about 20 cm (equivalent to the ileum) was carefully removed and internally washed with a warmed solution (37° C.) of Tyrode (Composition in mM) (NaCl 137; KCl 2.7; NaH2PO4 0.42; NaHCO3 11.9; MgCl2 0.5; CaCl2 1.8; glucose 5.6) to remove the fecal content. […].
(§2) About 3-cm ileum fragments were vertically mounted in 10 ml glass cuvettes, immersed in Tyrode's solution at 37° C., aerated with carbogen (O2, 95% and CO2, 5%) and supplemented with atropine according to the standard procedure. The tissue had one of its ends tied to a rod while the other end was coupled with a transductor after the transference from the rod to the cuvette. The contractions were isotonically registered (basal tension of 1 g) with the support of a transductor of displacement-force connected to a computerized system to capture data. After a 30 minute period of balance, each segment was repeatedly stimulated by histamine (1 μM) until response stabilization. To induce anaphylatic contraction, ileum segments from sensitized experimental animals were stimulated by ovoalbumin (10 μg/ml). […]. The results were presented as a percentage of inhibition calculated in relation to the contractive effect obtained from stimulated and non-treated preparations.
(§3) Concentration-response data were adjusted through non-linear regression curves with the assistence of a graphics software (GraphPad Prism, USA). The concentration of an antagonist needed to inhibit the contractive response to inhibit the contractive response after stimulation by histamine or antigen at 50% (IC50) was used to compare the anti-spasmodic potency. The values expressed as an average ± standard error of the mean and statistically analysed through the test of analysis variance (ANOVA), followed by the Newman-Keuls-Student test.

[5] = test system: dorsal subcutaneous tissue of rats; experiment: Anaphylactic release of histamine by fragments of dorsal subcutaneous tissue; set-up: species or system Wistar rats; details: for IC50: 60 min pre-treatment, read-out: IC50, inhibition of histamine release caused by anaphylatic stimulus
Description: Female and male Wistar rats were used, weighing between 180 and 200 g, they came from Oswaldo Cruz Foundation's Center of Laboratory Animal Raising. The procedures involving the animals were examined and approved by Oswaldo Cruz Foundation's Committee of Animal Ethics (CEUA-FIOCRUZ, Port. 00085-02). The rats were sensitized with a subcutaneous injection containing a mixture of 50 μg ovalbumina plus 5 mg Al(OH)3. Fourteen days after the sensitization the animals were sacrificed in a chamber of CO2, to have their dorsal hypodermis removed which was fragmented into smaller segments of about 3 mm in a Petri dish containing PBS. The fragments were individually transferred to a dish with 48 pools containing 500 μl of Hanks with Ca^++ and Mg^++.
Five experimental groups were studied in quadruplicates:
I. Saline group, negative control, pools where the tissue was neither treated nor stimulated;
II. Ovoalbumin group, positive control, pools where the tissue was not treated but it was stimulated by ovoalbumin (300 μg/ml);
III. JM24-1 group, pools where the tissue was previously treated with JM24-1 before the stimulation with ovoalbumin (300 μg/ml);
IV. JM25-1 group, pools where the tissue was previously treated with JM25-1 before the stimulation with ovoalbumin (300 μg/ml);
V. JMF2-1 group, pools where the tissue was previously treated with JMF2-1 before the stimulation with ovoalbumin (300 μg/ml).
Treated and non-treated pools were kept at 37° C. in a metabolic incubator (atmosphere containing 95% O2 and 5% CO2) for 60 minutes before the antigenic challenge. After the addition of ovoalbumin (300 μg/ml) all the pools were incubated again in a metabolic oven for more than 60 minutes. After removal of tissue for drying and weighing, the culture medium was collected and acidified with perchloric acid 0.4 N being, after centrifugation 150×g for 10 min. stocked at −20° C. until the moment of fluorimetric quantifying of histamine, according to the previous work. The values were shown like nanograms of released histamine by mg of tissue (dry weight).

Swiss 44 mice = experiment: Convulsivant activity after intraperitoneal injection; assay type: in vivo; details: mouse, in vivo, ip
Description: Female and male Swiss 44 mice were used, weighing between 25 and 30 g, they came from Oswaldo Cruz Foundation's Center of Laboratory Animal Raising. The procedures involving the animals were examined and approved by Oswaldo Cruz Foundation's Committee of Animal Ethics (CEUA-FIOCRUZ, Act 00085-02). […] For each molecule, the necessary dose to induce a convulsive clinical Figure in 50% of the animals (DE50) was determined by linear regressive curves interpoled (GraphPad Prim, version 3.03).

[6] = test system: isolated ileum of an experimental animal; experiment: Anaphylactic contraction of isolated ileum induced by antigen (ovoalbumin); details: antigen (10 μg/ml), average ±SEM, at least 3 animals; read-out: Stimulation with antigen IC50
Description: as §1, §2, §3

[7] = test system: experimental animal trachea; experiment: Relaxation of trachea pre-contracted by anaphylactic stimulation (ovoalbumin); details: pre-contracted with ovoalbumin (20 μg/ml), average±SEM, at least 3 animals; read-out: IC50, concentration necessary to relax in 50% the anaphylatic spasm of trachea
Description: Female and male experimental animals were used, weighing between 300 and 400 g, they came from Oswaldo Cruz Foundation's Center of Laboratory Animal Raising. The procedures involving the animals were examined and approved by Oswaldo Cruz Foundation's Committee of Animal Ethics (CEUA-FIOCRUZ, License number 00085-02). The animals were sensitized through a subcutaneous injection with a mixture of 50 μg ovoalbumin and 5 mg Al(OH)3. Fourteen to thirty days after the sensitization, the experimental animal was sacrificed in a chamber of carbonic gas to have its trachea removed. The trachea was transferred to a Petri dish containing Krebs solution (composition in mM) (NaCl-119; […] NaHCO3-25; […] The total segment was divided into fragments of about 3 to 4 rings that were sectioned at the extreme ending, the muscular part of the trachea. Each fragment had one of its ends tied to a rod while the other end was connected to an isometric transductor (U Basile, Italy) after the transference from the rod to a 10 ml glass cuvette. […] The contractions were registered with the […] of a computerized system of data capture (Letica, Spain). […] The results were shown as a percentage of relaxation in relation to the plateau of the anaphylatic pre-contraction. Concentration-response data were adjusted through non-linear regression curves with the […] of a graphics software (GraphPad Prism, USA). […] The values were expressed as an average± standard error of the mean and statistically analysed through the test of analysis variance (ANOVA), followed by the Newman-Keuls-Student test.

CCCCOc1ccc(C(=O)CCN2CCCCC2)cc1 [dyclonine]
attenuation of bronchospasm by histamine (patients): ineffective

CCN(CC)CC(=O)Nc1ccccc1C(F)(F)F [JMF2-1, 2-dyethylamine-2-trifluormetilacetotoluidide]
Time of Anesthesia ([1]; 4 μMol/site intradermal, n=4, average±SEM): 28 ± 1 min
time of anesthesia compared with lidocaine [1]: significantly inferior
IC50 ([2]; GH3 cells, holding potential −80 mV to +60 mV step pulse, read-out: IC50, blockade of Na+ currents): 25400 µM
50% inhibitory concentration, times higher than lidocaine ([2]; ratio to lidocaine IC50): 169 times
blocking the accumulation of eosinophils in the bronchoalveolar area [3]: equipotent to lidocaine
IC50 [4]: 100 ± 10 µM
IC50 ([5]; ovoalbumin (300 μg/ml)): 0.16 µM
times more potent than lidocaine, histamine release ([5]; ratio to lidocaine): about 29 times
DE50, dose to induce convulsion in 50% of the animals (Swiss 44 mice): 305 mg/kg

CCN(CC)CC(=O)Nc1cc(C)ccc1C [JM25-1, 2-dyethylamine-2′,5′-acetoxylidide]
time of anesthesia compared with lidocaine [1]: significantly inferior
IC50 [6]: 120 ± 10 µM
IC50 [4]: 140 ± 20 µM
IC50 [7]: 130 ± 20 µM
inhibition of anaphylactic histamine release, result in words ([5]; ovoalbumin (300 μg/ml)): concentrations comparable to that of lidocaine
IC50 ([5]; ovoalbumin (300 μg/ml)): 8.35 µM
